Measured values published in patent publication US20230114728A1 (Venatorx Pharmaceuticals, Inc., priority 2019, published 2023).
In brackets after ≈: the same amount, converted by molar mass.

Tested on: A. baumannii IL123 (ABΔ3-ARAEcPore)
Assay: Broth microdilution MIC in iron-depleted CAMHB (IDM)
Assay type: cell-based
Details: Acinetobacter baumannii, read-out: Minimum Inhibitory Concentration, IL-2123
Summary of the method: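 Colonies grow 3-5 h in iron-depleted broth at 37° C, are adjusted by OD600 to give 2-8×10^5 CFU/mL, and are added to 2-fold serial compound dilutions. After 16-20 h (Pseudomonas) or 20-24 h (Acinetobacter) at 37° C, the lowest concentration with no visible growth is the MIC.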

Row | Compound | MIC
1 | Nc1nc(C(NC(=O)N2CCN(CCNC(=O)c3ccc(O)c(O)c3Cl)C(=O)C2=O)C(=O)N[C@H]2Cc3ccc(F)c(C(=O)O)c3OB2O)c(F)s1 (stereo partly drawn) [Example 4, (3R)-3-(2-(2-amino-5-fluorothiazol-4-yl)-2-(4-(2-(2-chloro-3,4-dihydroxybenzamido)ethyl)-2,3-dioxopiperazine-1-carboxamido)acetamido)-7-fluoro-2-hydroxy-3,4-dihydro-2H-benzo[e][1,2]oxaborinine-8-carboxylic acid] | 32 to 64 µg/mL (≈ 42.6 to 85.1 µM)
2 | O=C(NCCCN1CCN(C(=O)NC(C(=O)N[C@H]2Cc3cccc(C(=O)O)c3OB2O)c2ncc(O)cc2F)C(=O)C1=O)c1ccc(O)c(O)c1Cl (stereo partly drawn) [Example 1, (3R)-3-(2-(4-(3-(2-chloro-3,4-dihydroxybenzamido)propyl)-2,3-dioxopiperazine-1-carboxamido)-2-(3-fluoro-5-hydroxypyridin-2-yl)acetamido)-2-hydroxy-3,4-dihydro-2H-benzo[e][1,2]oxaborinine-8-carboxylic acid] | 0.5 to 1 µg/mL (≈ 0.673 to 1.35 µM)
3 | Nc1nc(/C(=N/OC[C@H](NC(=O)c2ccc(O)c(O)c2Cl)C(=O)O)C(=O)N[C@H]2Cc3cccc(C(=O)O)c3OB2O)cs1 [Example 6, (R)-3-((Z)-2-(2-aminothiazol-4-yl)-2-(((S)-2-carboxy-2-(2-chloro-3,4-dihydroxybenzamido)ethoxy)imino)acetamido)-2-hydroxy-3,4-dihydro-2H-benzo[e][1,2]oxaborinine-8-carboxylic acid] | 32 to 64 µg/mL (≈ 50.5 to 101 µM)
4 | O=C(NCCN1CCN(C(=O)NC(C(=O)N[C@H]2Cc3ccc(F)c(C(=O)O)c3OB2O)c2ncc(O)cc2F)C(=O)C1=O)c1c(F)cc(O)c(O)c1Cl (stereo partly drawn) [Example 5, (3R)-3-(2-(4-(2-(2-chloro-6-fluoro-3,4-dihydroxybenzamido)ethyl)-2,3-dioxopiperazine-1-carboxamido)-2-(3-fluoro-5-hydroxypyridin-2-yl)acetamido)-7-fluoro-2-hydroxy-3,4-dihydro-2H-benzo[e][1,2]oxaborinine-8-carboxylic acid] | 2 to 4 µg/mL (≈ 2.61 to 5.23 µM)
